The source made the active and inactive calls. Cut-off read from the data, not from the text of the source, for most assays here: actives have a measured EC50 and inactives only a lower limit.
Tests used:
[1] = luciferase reporter signal suppression in cells – H4 neuroglioma cells, luminescence, dose response (AID 1990); format: functional, cell-based
[2] = alpha-synuclein stem-loop luciferase translation blockers – H4 neuroglioma cells, luminescence, confirmation (AID 1988); format: functional, cell-based
[3] = Luminescence Cell-Based Dose Response HTS to Identify Inhibitors of 5'UTR Stem-Loop Driven Prion Protein mRNA Translation in H4 Neuroglioblastoma Cells. [Related pubchem assays: 1827 (Project Summary), 1813 (Primary HTS)]; format: functional
cells [4] = format: functional, cell-based
cells [5] = format: functional, cell-based; remark: listed apart in the source
[6] = test system: Streptococcus sp. 'group A'; test: Streptococcus pyogenes SK(-)GAS viability under kanamycin – luminescence, BacTiterGlo, confirmation, counter-screen for streptokinase expression inhibitor project, dose response (AID 1900); format: functional, organism-based
Streptokinase A = target: T1, Streptokinase A (Streptococcus pyogenes serotype M1, UniProt P10520); test: viability-normalized secreted streptokinase activity reduction – plasminogen activation absorbance, OD405, dose response (AID 1914); format: functional, Streptococcus pyogenes M1 GAS;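 note: secreted streptokinase activity via plasminogen activation per viability signal from cell pellet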
T1 sequence (P10520 whole entry): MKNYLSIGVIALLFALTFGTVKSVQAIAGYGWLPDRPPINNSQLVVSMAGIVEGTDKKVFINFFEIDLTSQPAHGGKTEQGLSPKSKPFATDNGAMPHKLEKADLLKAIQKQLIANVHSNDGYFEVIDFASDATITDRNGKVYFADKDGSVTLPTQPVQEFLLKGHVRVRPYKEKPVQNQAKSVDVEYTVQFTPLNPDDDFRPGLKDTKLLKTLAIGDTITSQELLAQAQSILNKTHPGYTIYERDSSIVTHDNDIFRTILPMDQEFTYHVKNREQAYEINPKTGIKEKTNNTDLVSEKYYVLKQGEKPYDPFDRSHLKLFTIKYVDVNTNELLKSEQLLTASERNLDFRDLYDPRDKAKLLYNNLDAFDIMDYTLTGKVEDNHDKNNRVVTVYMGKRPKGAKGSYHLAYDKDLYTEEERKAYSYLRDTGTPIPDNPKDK

Streptococcus = test: GAS UMAA2166 growth inhibition – luminescence, BacTiterGlo, counter-screen for streptokinase expression inhibitor project, dose response (AID 1915); format: functional, organism-based;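 note: potency for reduction of bacterial viability or growth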
[7] = P. falciparum Dd2 growth inhibitors, dose response, SYBR Green, cherry-picked samples (AID 1159567); format: functional, cell-based
[8] = target: T2, Heat shock factor protein 1 (Mus musculus, UniProt P38532); test: decrease of HSF1-responsive luciferase luminescence – cell-based, NIH3T3, dose retest, confirmation (AID 2382); format: functional;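 note: NIH3T3 fibroblasts with HSF1-driven luciferase reporter stressed by proteasome inhibitor MG132; luminescence from HSF1-driven luciferase expression after 8 hours of MG132 stress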
T2 sequence (P38532 whole entry): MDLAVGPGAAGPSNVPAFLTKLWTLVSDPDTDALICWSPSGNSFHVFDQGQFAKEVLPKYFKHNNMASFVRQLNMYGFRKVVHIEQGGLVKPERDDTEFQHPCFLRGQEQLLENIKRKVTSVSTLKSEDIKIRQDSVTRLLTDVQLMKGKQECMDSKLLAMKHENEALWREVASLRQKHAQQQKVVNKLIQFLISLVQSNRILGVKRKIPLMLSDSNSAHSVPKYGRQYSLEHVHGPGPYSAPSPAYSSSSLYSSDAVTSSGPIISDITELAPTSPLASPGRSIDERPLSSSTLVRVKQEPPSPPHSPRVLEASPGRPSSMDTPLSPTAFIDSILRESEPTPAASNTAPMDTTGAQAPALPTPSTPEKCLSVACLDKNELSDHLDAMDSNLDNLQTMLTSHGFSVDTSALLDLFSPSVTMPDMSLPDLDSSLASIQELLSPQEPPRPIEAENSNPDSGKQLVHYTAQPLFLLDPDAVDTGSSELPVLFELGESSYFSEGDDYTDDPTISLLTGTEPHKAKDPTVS

INS1 = test: INS-1E survival protection against cytokine death – cell-based, luminescence, retest, dose response (AID 449756); format: functional; conditions: Rattus norvegicus;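 note: cell death triggered by IL-1 beta plus TNF-alpha plus IFN-gamma mixture; protective hits raise ATP signal compared with cytokine alone wells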
[9] = NIH3T3 cell viability loss – ATP luminescence, mouse fibroblasts, counter-screen, dose response (AID 2010); format: functional, cell-based;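 note: cells exposed to compound for about 90 hours before reading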
[10] = Trypanosoma cruzi growth suppression in host cells – NIH3T3 host cells, beta-gal luminescence, confirmation (AID 2044); format: functional, cell-based;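 note: intracellular parasites grown in NIH/3T3 mouse fibroblasts as host cells; luminescent beta-galactosidase reporter signal from transgenic T. cruzi replicating inside host cells; inhibitors lower the luminescence signal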

Row | SMILES | EC50 [1] | EC50 [2] | EC50 [3] | other results
1 | COCCn1c(=O)c2c(nc3n2CC(C)CN3CCc2ccccc2)n(C)c1=O (centres undefined) | > 120 µM (not active) | > 120 µM (not active) | > 120 µM (not active) | 
2 | CCC1CCCCN1CCCNC(=O)C1CCN(c2nnc(-n3cccc3)s2)CC1 (centres undefined) |  |  |  | EC50 (cells [4]): > 350 µM (not active); EC50 (cells [5]): > 350 µM (not active)
3 | Clc1c(CSc2nc3ccccc3o2)nc2sccn12 |  |  |  | EC50 (cells [4]): > 350 µM (not active); EC50 (cells [5]): 21 µM (active)
4 | Cc1cccc(/C=C2\Sc3ccc(C(=O)N4CCC(C)CC4)cc3N(C)C2=O)c1 |  |  |  | EC50 [6]: 3.11 µM (active); EC50 (Streptokinase A): 20.3 µM (active); EC50 (Streptococcus): 7.54 µM (active)
5 | N#Cc1ccc(-c2ccc([C@H]3[C@@H](CO)N4C(=O)CN(C(=O)Cc5ccccc5)C[C@@H]34)cc2)cc1 |  |  |  | AC50 [7]: 18.1 µM (active)
6 | OCc1cccc[n+]1CCc1ccccc1 | > 120 µM (not active) | > 120 µM (not active) | 48.4 µM (active) | 
7 | Cc1ccc(-n2c(SCC(=O)NCCC3=CCCCC3)nc3nnc(C)c-3c2N)cc1Cl | 23 µM (active) | > 120 µM (not active) | 75.9 µM (active) | 
8 | Cc1nc2c(C(=O)Nc3ccc(N4CCCC(O)C4)cc3)snc2c(=O)[nH]1 (centres undefined) |  |  |  | EC50 (Streptokinase A): > 150 µM (not active)
9 | O=C(C1CC12CCCC2)N1CCC(CO)(Cc2ccccc2Cl)CC1 (centres undefined) | 19 µM (active) | > 120 µM (not active) | 120 µM (active) | 
10 | C[C@@H]1CN([C@@H](C)CO)C(=O)c2cccc(NC(=O)c3cnccn3)c2O[C@@H]1CN(C)Cc1ccc(C(F)(F)F)cc1 |  |  |  | AC50 [7]: 9.12 µM (active)
11 | CC(C)(C)NC(=O)N1c2ccccc2Sc2ccccc21 | 15.3 µM (active) | 112 µM (active) | > 120 µM (not active) | 
12 | CC/N=C1\S/C(=C\c2ccc(-c3cccc(C(=O)O)c3)o2)C(=O)N1CC |  |  |  | EC50 [6]: 3.4 µM (active); EC50 (Streptokinase A): > 150 µM (not active); EC50 [8]: > 195 µM (not active); EC50 (Streptococcus): 10.7 µM (active)
13 | CN(C)C(=O)c1ccc(NC(=O)c2cccc(S(=O)(=O)N3CCCCCC3)c2)cc1 |  |  |  | AC50 (INS1): > 260 µM (inactive)
14 | Nc1c(S(=O)(=O)c2cccs2)c2nc3ccccc3nc2n1Cc1ccccc1 | 20.7 µM (active) | > 120 µM (not active) | > 120 µM (not active) | 
15 | COC(=O)[C@H](CC(C)C)N(Cc1ccccc1)S(=O)(=O)N(Cc1ccccc1)[C@@H](CC(C)C)C(=O)OC |  |  |  | AC50 (INS1): 13.7 µM (active)
16 | COc1ccccc1N1CCN(Cc2c[nH]c3ccccc23)CC1 | > 120 µM (not active) | > 120 µM (not active) | 25.3 µM (active) | EC50 [9]: > 60 µM (not active); EC50 [10]: 2.1 µM (active)

Source: ChEMBL document CHEMBL1201862, “PubChem BioAssay data set” (2004)
